Reference: patent US20210038668A1, “TRADITIONAL CHINESE MEDICINE COMPOSITION FOR PREVENTING AND/OR TREATING ISCHEMIC REPERFUSION INJURY” (TASLY PHARMACEUTICAL GROUP CO., LTD., priority 2018, published 2021)

Key:
[1] = test system: cerebral cortex microvessels; experiment: Opening number of cerebral cortex microvessels by SEM; format: in vivo, C57BL/6 mice; details: 24 h after administration; tPA 10 mg/kg alone; T541 20 mg/kg + tPA 10 mg/kg
Protocol: Scanning electron microscope (SEM): after reperfused for 24 hours, anesthetized mice were perfused 3% glutaraldehyde for 40 minutes via ventriculus sinister at a rate of 3 ml/min; the brain was taken, and the right cortical penumbra was cut off and immobilized in glutaraldehyde for 2 hours. After washed by a PBS phosphate buffer, mice were immobilized in 1% osmium tetroxide for 2 hours; a proper section was taken and fixed on a metal support. Tissue blocks were plated gold, observed and shoot by an SEM (JSM-5600LV, JEOL, Tokyo, Japan).
5 500-fold visual fields were randomly selected for each mouse under SEM to count the opening number of cerebral cortex microvessels in right hemisphere penumbra. N=3. (See lines 3 and 4 of FIG. 7)

VE-cadherin = experiment: Western blotting of VE-cadherin, cortex of ischemic penumbra; format: in vivo, C57BL/6 mice; details: brain tissue 24 hours after administration, sham = 1.00; tPA 10 mg/kg alone; T541 20 mg/kg + tPA 10 mg/kg
Protocol: (§1) After reperfused for 24 hours, mice were perfused by normal saline; Western blotting analysis was conducted to the penumbra field of infarcted right cerebral cortex. After perfused, mice brain tissue was taken out; cerebellum and prefrontal lobe were cut off; the brain tissue of right brain close to 1 cm of the central joint of left and right hemispheres along the sagittal view; infarcted penumbra field of the rest tissues was cut off along an 45° angle; the cerebral cortex of the penumbra field was peeled off and preserved at low temperature. Right cerebral cortex was taken and added 1×RIPA lysate and a Cocktail protease inhibitor (1:100, Cell Signaling Technology, US) for full pyrolysis and ultrasonic treatment, and then 17000 g were centrifuged for 30 minutes. Supernatant was taken and added 5×loading buffer by volume, boiled for 20 minutes in boiling water, and then preserved at −80° C. Excessive supernatant was taken out and quantified by a BCA protein quantification liquor (ThermoScientific, US) to measure absorbance value at 560 nm of ELIASA and to calculate the protein concentration according to a standard curve. […] The density of electrophoretic strips was analyzed by an image analysis software Quantityone. […]

Occludin = experiment: Western blotting of Occludin, cortex of ischemic penumbra; format: in vivo, C57BL/6 mice; details: brain tissue 24 hours after administration, sham = 1.00; tPA 10 mg/kg alone; T541 20 mg/kg + tPA 10 mg/kg
Protocol: as §1

JAM-1 = experiment: Western blotting of JAM-1, cortex of ischemic penumbra; format: in vivo, C57BL/6 mice; details: brain tissue 24 hours after administration, sham = 1.00; tPA 10 mg/kg alone; T541 20 mg/kg + tPA 10 mg/kg
Protocol: as §1

mitochondrial complex I = experiment: Mitochondrial complex I activity in brain tissue; format: in vivo, C57BL/6 mice; details: brain tissue 24 hours after administration; tPA 10 mg/kg alone or + T541 20 mg/kg or ingredients at Table 7 doses
Description: (§2) To compare the therapeutical effect on reperfusion injury caused by tPA thrombolysis between the traditional Chinese medicinal composition of the present invention and each ingredient (total saponins of Astragalus, the experiment was divided into the following group (tPA is combined with T541, individual ingredient thereof and compatibility of any two ingredients) specifically as follows: tPA+total saponins of Astragalus (tPA+HQ), tPA+ salvianolic acids (tPA+DS), tPA+Panax notoginseng saponins (tPA+SQ), tPA+ total saponins of Astragalus+salvianolic acids (tPA+HQ+DS), tPA+ total saponins of Astragalus+Panax notoginseng saponins (tPA+HQ+SQ), tPA+ salvianolic acids+Panax notoginseng saponins (tPA+DS+SQ) and tPA+T541. Normal saline served as an isovolumetric control. The usage number in each group is 6.
(§3) ELISA adsorption kit was used to measure the change on the content of MDA, 8-hydroxyl-2′-deoxyguanosine (8-OHdG), adenosine triphosphate (ATP), adenosine diphosphate (ADP) and adenosine monophosphate (AMP) in the penumbra field of brain tissue cortex of the mode, and the change on the activity of mitochondrial complexes I, II, IV and V. 6 samples were used to repeat the independent experiment for at least three times for each group of data.

mitochondrial complex IV = experiment: Mitochondrial complex IV activity in brain tissue; format: in vivo, C57BL/6 mice; details: brain tissue 24 hours after administration; tPA 10 mg/kg alone or + T541 20 mg/kg or ingredients at Table 7 doses
Description: as §2, §3

Bax = experiment: Western blotting of Bax, endothelial cells after hypoxia/reoxygenation; format: cell-based; details: rat brain endothelial cells, hypoxia 4.5 h/reoxygenation 3 h; tPA 20 mcg/ml alone (model group); T541 400 mcg/ml + tPA 20 mcg/ml
Description: Establishment of rat brain endothelial cell H/R model: rat brain endothelial cells were purchased from ATCC, and then subcultured to 5-6 generations in normal conditions for further experiment. […]

For “tPA: tissue-type plasminogen activator (tPA) for thrombolysis”, the “Opening number of microvessels” value [1] was 21.07 ± 1.54, the VE-cadherin/β-actin (VE-cadherin) was 0.53 ± 0.07 and the Occludin/β-actin (Occludin) was 0.38 ± 0.02. For the same substance, the JAM-1/β-actin (JAM-1) was 0.52 ± 0.04, the “Complex I activity” value (mitochondrial complex I) was 1.75 ± 0.14 and the “Complex IV activity” value (mitochondrial complex IV) was 0.267 ± 0.016. The Bax (Bax) was 2.44 ± 0.51 and the Bax/Bcl-2 (Bax) was 4.57 ± 0.75.
